Three compounds from ChEMBL document CHEMBL5696442, “Discovery of type II inhibitors of TGFβ-activated kinase 1 (TAK1) and mitogen-activated protein kinase kinase kinase kinase 2 (MAP4K2)” (J Med Chem, 2015) can be followed below.

The target of assay [1] is T1, Mitogen-activated protein kinase 13 (Homo sapiens) (UniProt O15264).
T1 sequence (whole entry): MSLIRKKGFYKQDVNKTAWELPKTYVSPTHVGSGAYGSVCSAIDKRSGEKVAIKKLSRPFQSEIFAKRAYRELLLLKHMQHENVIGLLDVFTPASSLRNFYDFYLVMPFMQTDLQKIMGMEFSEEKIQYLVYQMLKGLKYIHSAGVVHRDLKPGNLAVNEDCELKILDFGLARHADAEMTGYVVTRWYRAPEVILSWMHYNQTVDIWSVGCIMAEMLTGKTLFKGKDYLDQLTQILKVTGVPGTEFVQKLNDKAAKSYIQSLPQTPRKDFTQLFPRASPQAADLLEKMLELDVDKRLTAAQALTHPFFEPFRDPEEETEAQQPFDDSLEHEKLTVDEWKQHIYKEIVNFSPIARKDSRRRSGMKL
Put plainly: Inhibition of p38 delta (unknown origin) at 1 uM by Ambit Kinomescan binding assay relative to control.

For assay [2], the target named is Cyclin-dependent kinase 1 (Homo sapiens) (UniProt P06493). In words: Inhibition of CDC2 Lys2 labeling site harbouring DLKPQNLLIDDKGTIK in human A-375 cells at 5 uM by KiNativ Profiling analysis relative to control. It counts as cell-based.
Sequence of Cyclin-dependent kinase 1 (Homo sapiens) (P06493 whole entry, looked up): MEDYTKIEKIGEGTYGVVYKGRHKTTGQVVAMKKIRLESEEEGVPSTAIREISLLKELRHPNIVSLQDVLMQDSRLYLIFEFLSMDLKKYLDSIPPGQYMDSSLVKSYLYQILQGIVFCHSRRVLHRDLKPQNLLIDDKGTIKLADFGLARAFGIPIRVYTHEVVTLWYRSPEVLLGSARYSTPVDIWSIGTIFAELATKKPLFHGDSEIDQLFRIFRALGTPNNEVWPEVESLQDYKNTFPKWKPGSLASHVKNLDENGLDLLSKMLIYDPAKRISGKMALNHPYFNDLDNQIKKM
In assay [3] the target is Dual specificity protein kinase CLK1 (Homo sapiens) (UniProt P49759). In words: Inhibition of CLK1 (unknown origin) at 1 uM by Ambit Kinomescan binding assay relative to control; values are per cent of control.
Sequence of Dual specificity protein kinase CLK1 (Homo sapiens) (P49759 whole entry, looked up): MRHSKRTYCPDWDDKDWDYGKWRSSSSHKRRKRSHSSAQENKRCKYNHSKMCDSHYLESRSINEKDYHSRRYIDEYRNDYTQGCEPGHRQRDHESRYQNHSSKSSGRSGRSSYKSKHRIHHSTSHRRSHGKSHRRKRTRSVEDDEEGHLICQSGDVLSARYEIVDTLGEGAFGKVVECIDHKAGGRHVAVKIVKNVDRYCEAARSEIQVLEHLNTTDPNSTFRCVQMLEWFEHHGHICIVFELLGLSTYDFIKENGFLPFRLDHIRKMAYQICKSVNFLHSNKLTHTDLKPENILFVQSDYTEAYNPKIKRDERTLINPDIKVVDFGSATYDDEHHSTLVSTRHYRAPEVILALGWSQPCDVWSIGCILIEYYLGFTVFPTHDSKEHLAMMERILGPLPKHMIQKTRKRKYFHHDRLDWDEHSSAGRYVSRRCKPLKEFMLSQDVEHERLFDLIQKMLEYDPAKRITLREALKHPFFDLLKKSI
Assay [4] deals with Ephrin type-B receptor 3 (Homo sapiens) (UniProt P54753). In words: Inhibition of EPHB3 (unknown origin) at 10 uM by Ambit Kinomescan binding assay.
Sequence of Ephrin type-B receptor 3 (Homo sapiens) (P54753 whole entry): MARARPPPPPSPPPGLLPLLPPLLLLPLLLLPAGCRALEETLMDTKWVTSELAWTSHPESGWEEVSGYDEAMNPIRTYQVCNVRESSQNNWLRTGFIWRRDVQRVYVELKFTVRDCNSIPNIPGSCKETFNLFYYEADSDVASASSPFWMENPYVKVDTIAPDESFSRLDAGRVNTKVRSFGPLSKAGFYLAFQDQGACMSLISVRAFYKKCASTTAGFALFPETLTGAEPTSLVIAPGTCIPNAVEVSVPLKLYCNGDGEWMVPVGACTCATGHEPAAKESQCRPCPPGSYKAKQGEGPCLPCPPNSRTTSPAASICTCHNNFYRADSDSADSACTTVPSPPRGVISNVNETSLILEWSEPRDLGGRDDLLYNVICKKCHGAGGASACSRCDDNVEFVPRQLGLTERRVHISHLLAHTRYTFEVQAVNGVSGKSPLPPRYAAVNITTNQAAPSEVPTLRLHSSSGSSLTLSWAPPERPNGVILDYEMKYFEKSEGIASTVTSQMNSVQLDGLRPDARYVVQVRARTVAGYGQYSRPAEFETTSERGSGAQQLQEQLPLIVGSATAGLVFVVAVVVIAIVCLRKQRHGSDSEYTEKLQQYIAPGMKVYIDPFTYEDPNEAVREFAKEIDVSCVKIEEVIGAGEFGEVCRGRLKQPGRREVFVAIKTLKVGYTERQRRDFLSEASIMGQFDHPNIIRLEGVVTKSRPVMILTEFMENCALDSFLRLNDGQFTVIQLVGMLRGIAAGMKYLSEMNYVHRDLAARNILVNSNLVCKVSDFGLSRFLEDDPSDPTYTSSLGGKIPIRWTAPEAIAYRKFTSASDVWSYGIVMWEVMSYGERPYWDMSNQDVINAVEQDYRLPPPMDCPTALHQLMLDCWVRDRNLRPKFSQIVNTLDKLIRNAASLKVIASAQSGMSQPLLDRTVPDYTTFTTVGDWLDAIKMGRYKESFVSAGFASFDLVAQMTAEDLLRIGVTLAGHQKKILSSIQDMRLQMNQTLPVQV
Assay [5] addresses T2, Serine/threonine-protein kinase D3 (Homo sapiens) (UniProt O94806).
T2 sequence (whole entry): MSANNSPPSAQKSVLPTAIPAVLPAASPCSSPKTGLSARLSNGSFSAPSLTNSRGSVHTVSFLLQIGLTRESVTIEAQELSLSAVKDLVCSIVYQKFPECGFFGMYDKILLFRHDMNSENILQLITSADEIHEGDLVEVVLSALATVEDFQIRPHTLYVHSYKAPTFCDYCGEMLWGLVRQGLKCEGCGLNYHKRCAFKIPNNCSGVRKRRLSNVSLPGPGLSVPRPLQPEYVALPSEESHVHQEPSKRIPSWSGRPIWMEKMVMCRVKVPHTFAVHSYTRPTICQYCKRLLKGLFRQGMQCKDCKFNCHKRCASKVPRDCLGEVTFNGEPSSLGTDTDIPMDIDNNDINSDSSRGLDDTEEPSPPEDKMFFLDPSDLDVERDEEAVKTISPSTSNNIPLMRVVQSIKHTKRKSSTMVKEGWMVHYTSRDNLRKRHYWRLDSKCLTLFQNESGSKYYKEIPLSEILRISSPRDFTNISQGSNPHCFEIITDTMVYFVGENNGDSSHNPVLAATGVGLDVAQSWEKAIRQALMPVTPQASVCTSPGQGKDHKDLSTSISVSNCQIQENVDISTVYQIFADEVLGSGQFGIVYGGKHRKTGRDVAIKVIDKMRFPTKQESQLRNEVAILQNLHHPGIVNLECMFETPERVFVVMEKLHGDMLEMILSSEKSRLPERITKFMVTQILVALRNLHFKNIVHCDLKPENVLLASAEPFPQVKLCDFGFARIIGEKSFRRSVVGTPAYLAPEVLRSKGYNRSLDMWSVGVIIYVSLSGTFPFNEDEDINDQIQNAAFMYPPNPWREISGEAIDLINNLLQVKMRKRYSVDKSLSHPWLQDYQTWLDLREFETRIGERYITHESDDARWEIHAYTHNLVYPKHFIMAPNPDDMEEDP
In words: Inhibition of PRKD3 (unknown origin) at 10 uM by Ambit Kinomescan binding assay.

For assay [6], the target named is eIF-2-alpha kinase GCN2 (Homo sapiens) (UniProt Q9P2K8). In words: Inhibition of GCN2 K2 labeling site in human Huh-7 cells at 1 uM by KiNativ Profiling analysis relative to control. It counts as cell-based.
Sequence of eIF-2-alpha kinase GCN2 (Homo sapiens) (Q9P2K8 whole entry): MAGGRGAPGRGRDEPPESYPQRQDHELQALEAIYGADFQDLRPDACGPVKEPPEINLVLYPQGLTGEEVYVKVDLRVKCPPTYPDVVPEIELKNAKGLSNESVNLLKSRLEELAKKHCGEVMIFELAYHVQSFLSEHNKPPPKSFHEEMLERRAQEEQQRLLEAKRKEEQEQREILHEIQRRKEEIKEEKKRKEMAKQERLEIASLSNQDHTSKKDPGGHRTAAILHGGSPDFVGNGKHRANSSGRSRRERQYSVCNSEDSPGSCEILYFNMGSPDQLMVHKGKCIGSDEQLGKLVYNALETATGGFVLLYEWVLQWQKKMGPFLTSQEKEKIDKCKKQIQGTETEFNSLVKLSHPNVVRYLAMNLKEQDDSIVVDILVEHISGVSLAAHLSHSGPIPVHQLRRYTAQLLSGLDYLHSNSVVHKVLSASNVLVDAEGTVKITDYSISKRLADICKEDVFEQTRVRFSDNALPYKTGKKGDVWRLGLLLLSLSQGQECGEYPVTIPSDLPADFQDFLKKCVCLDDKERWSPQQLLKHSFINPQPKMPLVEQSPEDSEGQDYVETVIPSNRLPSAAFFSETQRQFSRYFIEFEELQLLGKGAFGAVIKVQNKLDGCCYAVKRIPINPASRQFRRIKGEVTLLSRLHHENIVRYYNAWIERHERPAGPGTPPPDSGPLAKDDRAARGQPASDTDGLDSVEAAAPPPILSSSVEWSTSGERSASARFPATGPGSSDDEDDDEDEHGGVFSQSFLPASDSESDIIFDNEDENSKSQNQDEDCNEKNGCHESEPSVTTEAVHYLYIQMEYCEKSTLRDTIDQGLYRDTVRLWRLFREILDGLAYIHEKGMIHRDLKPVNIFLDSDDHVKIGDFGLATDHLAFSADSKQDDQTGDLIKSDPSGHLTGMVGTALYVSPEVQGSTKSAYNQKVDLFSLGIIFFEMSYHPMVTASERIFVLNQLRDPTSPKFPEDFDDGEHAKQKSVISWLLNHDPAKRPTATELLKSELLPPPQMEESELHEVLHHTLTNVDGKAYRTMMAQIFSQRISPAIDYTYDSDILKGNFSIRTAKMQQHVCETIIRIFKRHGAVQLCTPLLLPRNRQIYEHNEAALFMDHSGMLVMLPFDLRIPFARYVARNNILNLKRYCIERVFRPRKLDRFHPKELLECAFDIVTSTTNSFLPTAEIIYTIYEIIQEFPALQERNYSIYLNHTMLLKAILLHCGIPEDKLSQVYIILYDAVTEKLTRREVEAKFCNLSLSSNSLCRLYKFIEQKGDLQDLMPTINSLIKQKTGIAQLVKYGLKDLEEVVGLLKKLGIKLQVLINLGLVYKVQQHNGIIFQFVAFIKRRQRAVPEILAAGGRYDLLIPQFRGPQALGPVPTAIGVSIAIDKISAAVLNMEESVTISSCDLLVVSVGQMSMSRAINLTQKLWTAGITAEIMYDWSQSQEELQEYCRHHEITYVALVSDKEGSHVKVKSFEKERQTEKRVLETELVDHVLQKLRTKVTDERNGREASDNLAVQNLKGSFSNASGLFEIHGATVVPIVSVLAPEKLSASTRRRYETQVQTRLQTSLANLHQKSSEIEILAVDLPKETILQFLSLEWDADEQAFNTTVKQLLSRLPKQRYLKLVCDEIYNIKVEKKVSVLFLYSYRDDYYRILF
For assay [7], the target named is 5'-AMP-activated protein kinase catalytic subunit alpha-2 (Homo sapiens) (UniProt P54646). Put plainly: Inhibition of AMPKa2 Lys2 labeling site in human Huh-7 cell lysate at 1 uM by KiNativ Profiling analysis relative to control. It counts as subcellular.
Sequence of 5'-AMP-activated protein kinase catalytic subunit alpha-2 (Homo sapiens) (P54646 whole entry, looked up): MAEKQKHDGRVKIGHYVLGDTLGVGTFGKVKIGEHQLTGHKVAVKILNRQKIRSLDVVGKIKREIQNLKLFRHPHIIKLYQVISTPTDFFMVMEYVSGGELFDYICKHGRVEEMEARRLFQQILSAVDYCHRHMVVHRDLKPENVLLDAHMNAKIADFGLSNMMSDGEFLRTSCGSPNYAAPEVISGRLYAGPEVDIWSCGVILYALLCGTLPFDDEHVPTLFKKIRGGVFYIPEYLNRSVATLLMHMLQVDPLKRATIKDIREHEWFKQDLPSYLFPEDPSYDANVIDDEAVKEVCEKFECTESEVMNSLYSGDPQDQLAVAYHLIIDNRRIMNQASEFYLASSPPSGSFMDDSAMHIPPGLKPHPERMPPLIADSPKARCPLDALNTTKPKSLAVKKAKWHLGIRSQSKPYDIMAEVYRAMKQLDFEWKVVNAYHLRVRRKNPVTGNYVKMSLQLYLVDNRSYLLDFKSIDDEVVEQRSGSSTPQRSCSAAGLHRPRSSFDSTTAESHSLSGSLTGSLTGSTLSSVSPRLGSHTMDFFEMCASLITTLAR
Assay [8] has as its target T3, Serine/threonine-protein kinase 3 (Homo sapiens) (UniProt Q13188).
T3 sequence (whole entry): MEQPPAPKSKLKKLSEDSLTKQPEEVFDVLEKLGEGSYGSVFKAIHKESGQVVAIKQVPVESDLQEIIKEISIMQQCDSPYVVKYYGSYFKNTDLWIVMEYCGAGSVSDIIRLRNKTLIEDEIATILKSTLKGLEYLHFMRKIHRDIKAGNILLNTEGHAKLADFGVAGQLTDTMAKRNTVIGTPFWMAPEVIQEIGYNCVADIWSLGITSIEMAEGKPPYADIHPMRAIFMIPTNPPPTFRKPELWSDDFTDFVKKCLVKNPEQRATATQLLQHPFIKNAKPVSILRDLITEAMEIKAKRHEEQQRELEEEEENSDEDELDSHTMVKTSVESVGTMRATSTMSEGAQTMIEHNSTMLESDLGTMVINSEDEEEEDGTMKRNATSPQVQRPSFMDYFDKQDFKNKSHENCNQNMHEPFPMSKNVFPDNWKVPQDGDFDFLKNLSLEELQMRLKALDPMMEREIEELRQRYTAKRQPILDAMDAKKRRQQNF
Put plainly: Inhibition of MST2 Lys2 labeling site harbouring IHRDIKAGNILLNTEGHAK in human Huh-7 cell lysate at 1 uM by KiNativ Profiling analysis relative to control. In kind it is subcellular.

For assay [9], the target named is Mitogen-activated protein kinase 9 (Homo sapiens, UniProt P45984). In words: Inhibition of JNK2 Lys2 labeling site in human Huh-7 cells at 1 uM by KiNativ Profiling analysis relative to control. It counts as cell-based.
Sequence of Mitogen-activated protein kinase 9 (P45984 whole entry, looked up): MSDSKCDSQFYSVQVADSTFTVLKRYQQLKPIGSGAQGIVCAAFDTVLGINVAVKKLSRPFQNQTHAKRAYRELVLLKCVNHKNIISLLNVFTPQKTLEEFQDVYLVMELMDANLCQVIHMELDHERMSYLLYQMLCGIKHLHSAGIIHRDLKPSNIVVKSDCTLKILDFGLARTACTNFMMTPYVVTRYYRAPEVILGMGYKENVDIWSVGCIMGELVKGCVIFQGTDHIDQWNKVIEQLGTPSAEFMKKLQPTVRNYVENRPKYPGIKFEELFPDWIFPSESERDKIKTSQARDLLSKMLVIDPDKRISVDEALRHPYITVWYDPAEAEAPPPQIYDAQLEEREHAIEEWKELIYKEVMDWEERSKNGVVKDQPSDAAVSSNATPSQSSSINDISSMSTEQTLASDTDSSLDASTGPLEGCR

Active and inactive are the calls of the source. The rule behind the calls is not given here.

A word on the inhibition: it is the relative decrease from the control value, in per cent. Usually residual activity stands for the activity still measured, relative to the control.

`CCN1CCN(Cc2ccc(NC(=O)c3ccc(C)c(/C=C/c4cnc5[nH]ccc5c4OC)c3)cc2C(F)(F)F)CC1`: the inhibition was 67% in [1] and -6.1% in [2]. For the same compound, the residual activity in [3] is 59%.

For `CCN1CCN(Cc2ccc(NC(=O)c3ccc(C)c(Oc4ccnc5[nH]ccc45)c3)cc2C(F)(F)F)CC1`, the inhibition entry in [4] and in [5] was “inactive” each time. Besides, the inhibition in assay [6] is 12%.

As to `CNc1cc(Oc2cc(C(=O)Nc3cc(N4CCN(C)CC4)cc(C(F)(F)F)c3)ccc2C)ncn1`, the inhibition came out at 0.5% in [7], 14.4% in assay [8] and 14.5% in assay [9].
